From the NIST ThermoML archive (doi:10.1016/j.fluid.2013.09.028)
Numbers after ± are expanded uncertainties. Blank lines part the entries; values can stand above or below the compound they belong to.

Test: refractive index (Na D-line) (dimensionless); wn = mass fraction of the nth substance listed
Settings: 298.15 K, 101 kPa, Liquid, Standard Abbe refractometry

refractive index (w1 = 0.0958): 1.3462 ± 0.0005 | refractive index (w1 = 0.0961): 1.3462 ± 0.0005
SMILES: CN1CCCC1=O [N-methylpyrrolidone] + O

refractive index (w1 = 0.0473): 1.3425 ± 0.0005 | refractive index (w1 = 0.0477): 1.3404 ± 0.0005
SMILES: CC#N [acetonitrile] + O

refractive index (w1 = 0.0475): 1.3401 ± 0.0005 | refractive index (w1 = 0.0968): 1.3378 ± 0.0005
SMILES: O=C([O-])[O-].[K+].[K+] [potassium carbonate] + O

refractive index (w1 = 0.0473): 1.3426 ± 0.0005 | refractive index (w1 = 0.097): 1.3378 ± 0.0005
SMILES: O=C([O-])[O-].[Na+].[Na+] [sodium carbonate] + O
